Data set [1] relates to Mtb H37Ra ITM-M006710 (ATCC 9431). The experiment in a line: Microplate Alamar Blue Assay (MABA) microdilution, Mtb H37Ra. Type of data set: cell-based, Mycobacterium tuberculosis. Particulars: Mycobacterium tuberculosis.
Data set [2] relates to M. smegmatis DSM 43465 (ATCC 607). Briefly: Microplate Alamar Blue Assay (MABA) microdilution, M. smegmatis. The conditions noted are these: Mycolicibacterium smegmatis. Type of data set: cell-based, Mycobacterium smegmatis.
Data set [3] deals with Mycobacterium aurum DSM 43999 (ATCC 23366). Briefly: Microplate Alamar Blue Assay (MABA) microdilution, M. aurum. Type of data set: cell-based. Particulars: Mycolicibacterium aurum. In general terms: Alamar Blue is a resazurin reagent that responds to reducing activity.
The test system of data set [4] is Staphylococcus epidermidis CCM 4418 (ATCC 12228). Briefly: Antibacterial microdilution broth method, SE. The class given is cell-based. Particulars: 24 h, read-out: MIC SE. Background: Broth dilution looks for growth in wells or tubes with falling amounts of substance.
Data set [5] deals with Candida albicans CCM 8320 (ATCC 24433). The experiment in a line: Antifungal microdilution broth method, CA. Particulars: 24 h, read-out: MIC CA. The class given is cell-based.
In data set [6] the test system is Candida krusei CCM 8271 (ATCC 6258). Briefly: Antifungal microdilution broth method, CK. The class given is cell-based. The conditions noted are these: Pichia kudriavzevii, 24 h, read-out: MIC CK.
The subject of data set [7] is Candida parapsilosis CCM 8260 (ATCC 22019). Briefly: Antifungal microdilution broth method, CP. Type of data set: cell-based. The conditions noted are these: Lodderomyces parapsilosis, 24 h, read-out: MIC CP.
Data set [8] deals with Candida tropicalis CCM 8264 (ATCC 750). Briefly: Antifungal microdilution broth method, CT. Type of data set: cell-based. Particulars: 24 h, read-out: MIC CT.
Data set [9] concerns Aspergillus fumigatus ATCC 204305. Briefly: Antifungal microdilution broth method, AF. Type of data set: cell-based. The conditions noted are these: ATCC204305, 48 h, read-out: MIC AF.
Data set [10] relates to Aspergillus flavus CCM 8363. Briefly: Antifungal microdilution broth method, AFla. Type of data set: cell-based. The conditions noted are these: CCM8363, read after 48 h (filamentous fungi), read-out: MIC AFla. As for the experimental part:
6. In vitro antifungal activity screening
Antifungal activity evaluation was performed using a microdilution broth method according to EUCAST instructions (The European Committee on Antimicrobial Susceptibility Testing) with slight modifications. Eight fungal strains (four yeast and four mould strains) were used for antifungal […]
and Trichophyton interdigitale CCM 8377 (ATCC 9533). Tested strains were purchased from the Czech Collection of Microorganisms (CCM, Brno, Czech Republic) or from the American Type Collection Cultures (ATCC, Manassas, VA, USA). Tested compounds were dissolved in DMSO and diluted in a twofold manner with RPMI 1640 medium, with glutamine and 2% glucose, buffered to pH 7.0 with MOPS (3-morpholinopropane-1-sulfonic acid). The final concentration of DMSO in the testing […]
Static incubation was performed in the dark and in humid atmosphere, at 35±2 °C, for 24 and 48 h (72 and 120 h for Trichophyton interdigitale respectively). Positive controls consisted of test microbe solely, while negative controls consisted of cultivation medium and DMSO. Visual inspection and metabolic activity indicator, Alamar Blue (ThermoFisher Scientific), were used for MIC endpoint evaluation. The internal quality standards, amphotericin B (Sigma-Aldrich) and voriconazole (Toronto research Chemicals, CA) were involved in assays (for MIC of standards see Table S5). All experiments were conducted in duplicates.
For the results to be valid, the difference in MIC for one compound determined from two parallel measurements must not be greater than one step on the dilution scale.

In data set [11] the test system is Lichtheimia corymbifera CCM 8077. Briefly: Antifungal microdilution broth method, LC. Type of data set: cell-based. The conditions noted are these: CCM8077, 48 h, read-out: MIC LC.
Data set [12] relates to Trichophyton interdigitale CCM 8377 (ATCC 9533). Briefly: Antifungal microdilution broth method, TI. The class given is cell-based. The conditions noted are these: 48 h, read-out: MIC TI.
For data set [13], the system named is Klebsiella pneumoniae CCM 4415 (ATCC 10031). The experiment in a line: Antibacterial microdilution broth method, KP. The conditions noted are these: read after 24 h of incubation.
Setting [14] is: pH 6.6, read-out: MIC Mtb H37Ra.
Where [15] appears, read: pH 6, calculated from µg/mL, read-out: MIC Mtb H37Ra.
Setting [16] is: pH 6, read-out: MIC M. smegmatis µg/mL.
Setting [17] is: pH 6.6, read-out: MIC M. smegmatis.
[18] abbreviates: pH 6, read-out: MIC M. aurum µg/mL.

The text below walks through data of publication PMC7181131, “N-Pyrazinoyl Substituted Amino Acids as Potential Antimycobacterial Agents—the Synthesis and Biological Evaluation of Enantiomers” (Molecules, 2020).

Values after ≈ are worked out from the molar mass of the structure shown. Where two headings read alike, the source gives them in different places.

In the case of `COC(=O)[C@H](COC(C)(C)C)NC(=O)c1cnccn1` [PC-L-OtBu-Ser-Me, methyl O-(tert-butyl)-N-(pyrazine-2-carbonyl)-L-serinate], the MIC was not below 500 µg/mL in data set [1] (pH 6); not below 500 µg/mL in data set [1] (pH 6, read-out: MIC Mtb H37Ra); not below 500 µg/mL in [1] (setting [14]); not below 1780 µM in [1] (setting [15]); 250 µg/mL (≈ 889 µM) in [2] (setting [16]); not below 500 µg/mL in data set [2] (setting [17]). The MIC was 62.5 µg/mL (≈ 222 µM) in data set [3] (setting [18]); not below 500 µg/mL in [3] (pH 6.6, read-out: MIC M. aurum); more than 500 µM in data set [4]; more than 500 µM in data set [5]; more than 500 µM in data set [6]; more than 500 µM in data set [7]. Also, the MIC in [8], in [9], in data set [10], in data set [11] and in data set [12] was more than 500 µM throughout. Moreover, the “MIC KP” value in data set [13] is more than 500 µM.

With `COC(=O)[C@@H](CO)NC(=O)c1cnccn1` [PC-D-Ser-Me, methyl (pyrazine-2-carbonyl)-D-serinate], the MIC in [1] (pH 6) is 250 µg/mL; in data set [1] (pH 6, read-out: MIC Mtb H37Ra) it was 250 µg/mL; in [1] (setting [14]) it was not below 500 µg/mL; in [1] (setting [15]), 1110 µM; in [2] (setting [16]), not below 500 µg/mL; in [2] (setting [17]), not below 500 µg/mL. In addition, the MIC in data set [3] (setting [18]) was 250 µg/mL (≈ 1110 µM); in data set [3] (pH 6.6, read-out: MIC M. aurum), not below 500 µg/mL; in data set [4], more than 500 µM; in data set [5], more than 500 µM; in data set [6], more than 500 µM; in data set [7], more than 500 µM. In addition, the MIC in [8], in [9], in data set [10], in data set [11] and in data set [12] was more than 500 µM throughout. In [13], the “MIC KP” value is on record as more than 500 µM.

`COC(=O)[C@@H](Cc1ccc(O)cc1)NC(=O)c1cnccn1` [PC-D-Tyr-Me, methyl (pyrazine-2-carbonyl)-D-tyrosinate]: the MIC in data set [1] (pH 6) was 125 µg/mL; in [1] (pH 6, read-out: MIC Mtb H37Ra), 125 µg/mL; in data set [1] (setting [14]), not below 500 µg/mL; in [1] (setting [15]), 415 µM; in [2] (setting [16]) it was not below 500 µg/mL; in [2] (setting [17]), not below 500 µg/mL. Moreover, the MIC in [3] (setting [18]) is not below 250 µg/mL; in data set [3] (pH 6.6, read-out: MIC M. aurum), not below 500 µg/mL; in data set [4] it was more than 500 µM; in data set [5], more than 500 µM; in data set [6] it was more than 500 µM; in data set [7], more than 500 µM. The MIC in data set [8], in [9], in data set [10], in data set [11] and in data set [12] was more than 500 µM throughout. Moreover, in [13], the “MIC KP” value is recorded as more than 500 µM.

Consider `COC(=O)[C@@H](COC(C)(C)C)NC(=O)c1cnccn1` [PC-D-OtBu-Ser-Me, methyl O-(tert-butyl)-N-(pyrazine-2-carbonyl)-D-serinate], for which the MIC was not below 500 µg/mL in data set [1] (pH 6); not below 500 µg/mL in data set [1] (pH 6, read-out: MIC Mtb H37Ra); not below 500 µg/mL in [1] (setting [14]); not below 1780 µM in data set [1] (setting [15]); not below 500 µg/mL in data set [2] (setting [16]); not below 500 µg/mL in [2] (setting [17]). Besides, the MIC was not below 500 µg/mL in [3] (setting [18]); not below 500 µg/mL in data set [3] (pH 6.6, read-out: MIC M. aurum); more than 500 µM in data set [4]; more than 500 µM in data set [5]; more than 500 µM in [6]; more than 500 µM in [7]. The MIC in data set [8], in data set [9], in data set [10], in data set [11] and in [12] was more than 500 µM throughout. Besides, in data set [13], the “MIC KP” value is more than 500 µM.
